Data on six compounds can be found in patent US20200046658A1, “PHARMACEUTICAL COMPOSITION FOR INDUCING EXERCISE MIMETIC EFFECT” (CELLVERTICS CO., LTD., priority 2015, published 2020).

For test [1], the system named is spontaneously hypertensive rat (SHR). Briefly: Serum inflammatory markers, reactive oxygen species and adiponectin in SHR. The format is in vivo. The note with it: 8 weeks old, drug for 4 weeks, mean±SD; for ROS: blood. As to the method: (§1) The animals of the group I were anesthetized at 4 weeks of age while the rats of other groups were anesthetized at 8 weeks of age after being treated for 4 weeks. […] The recovered organs were kept in a refrigerator at −80° C. or in 10% formalin for fixation.
The concentration of total cholesterol, HDL cholesterol, LDL cholesterol and triglyceride was measured by enzymatic colorimetry (Roche Diagnostics GmbH; Mannheim, Germany). Also, serum assays for inflammatory markers were conducted using a […] cytokine Milliplex panel (Millipore Corporation, Billerica, Mass., USA) as recommended for cytokines (interleukin (IL)-1α, IL-1β, IL-6, IL-4, IL-10 and TNF-α). Acquisition was performed on a Luminex 100 platform and data analysis was carried out using the Multiplex analyzer. Reactive oxygen species and adiponectin were measured using the ELISA kit (MBS815494, Mybiosource). The measured blood adiponectin level was calibrated for the visceral fat weight (g).

Test [2] can be described thus: Body weight, cardiac weight and abdominal fat of SHR. The settings on record: 8 weeks old, drug in drinking water for 4 weeks (midodrine 0.2 mg/kg/day, atenolol 1 mg/kg/day), mean±SD. The format is in vivo, rat. How it is done: as §1
Body weight and abdominal fat were measured and compared for the midodrine-administered rat (II), atenolol-administered rat (III) and 8-week-old unadministered hypertension control group rat (IV).

In test [3] the test system is spontaneously hypertensive rat (SHR). Briefly: Echocardiographic examination of spontaneously hypertensive rats. The class given is in vivo. From the text:
Spontaneously hypertensive rat (SHR) is an animal model in which hereditary hypertension is expressed. It is known that the hypertension which is the most similar to human primary hypertension is expressed. In SHR, blood pressure begins to increase around 4-6 weeks of age and hypertension is developed seriously at 8-12 weeks. SHR is widely used in studies as an animal mode of primary hypertension, especially hypertension with cardiac lesions, because it is frequently accompanied damage to the hypertensive target organs, such as cardiac hypertrophy, heart failure, renal disorder, etc.
3-week-old spontaneously hypertensive rats (SHRs) were kept under a standardized condition (21° C., 41-62% humidity) with periodic light/dark (10/14 hour) cycles and were freely allowed to access water and laboratory feed. All the animal experiments were approved by the Korea University Institutional Animal Care and Use Committee (KUIACUC-2012-100) and were in accordance with the Guideline for the Care and Use of Laboratory Animals.
After anesthetization by intramuscular injection of Zoletil (8 mg/kg) and xylazine (2 mg/kg), the rats were laid on their left sides and M-mode echo images were obtained. The examination was conducted using Vivid 7 (GE Medical Systems, Milwaukee, Wis., USA) equipped with a 12-MHz transducer. After acquiring optimized 2-dimensional short-axis images for the left ventricle at the papillary muscle level, M-mode tracing and echocardiographic images were recorded at a speed of 100 mm/s.

Test [4] has the same test system. Briefly: ATP level in tissues of SHR by ELISA. The format is in vivo. The note with it: versus control group SHRs, FIG. 5. As to the method: 0.02 g of liver tissue was homogenized in 500 μL of PBS. The homogenate was centrifuged at 1500×g (or 5000 rpm) for 15 minutes and the supernatant was subjected to measurement. After pouring 100 μL of a reference material or sample to an adequate well of an antibody-precoated microtiter plate, 10 μL of the residual solution was added to the sample. After adding 50 μL of a conjugate to each well and mixing, the plate was covered with a lid and incubated at 37° C. for 1 hour. After adding 50 μL of substrate A or B to each well, incubation was conducted at 37° C. for 15 minutes. After adding a stop solution to each well, optical density was measured at 450 nm using a microplate reader.
The level of ATP in the heart, skeletal muscle and liver was measured by ELISA for the 4-week-old basal rat (I), midodrine-administered rat (II), atenolol-administered rat (III) and 8-week-old unadministered control group rat (IV).
On the technique in general: In an ELISA, binding on a coated surface is turned into a signal by an enzyme label.

Test [5] relates to aorta and cardiac muscle tissue. Briefly: mRNA expression of AT1R, eNOS, SOD, gp91-phox, TNFα in aorta and cardiac muscle of SHR. The class given is in vivo, rat. How it is done: as §1
Full-length RNA was extracted using the TriZol reagent according to the manufacturer's instructions. Complementary DNA was synthesized from the full-length RNA using the Power cDNA Synthesis kit and polymerase chain reaction was conducted for angiotensin II type I receptor (AT1R), endothelial nitric oxide synthase (eNOS), superoxide dismutase (SOD), gp91-phox (NADPH), tumor necrosis factor-alpha (TNF-α) and GAPDH using the PCR Premix kit.
The mRNA expression level of the genes related with vasoconstriction, nitric oxide production, oxidative stress and inflammation in the aorta and cardiac muscle tissue was investigated by […] for the 4-week-old basal rat (I), midodrine-administered rat (II), atenolol-administered rat (III) and 8-week-old unadministered control group rat (IV).

In test [6] the test system is mouse skeletal muscle cells (C2C12). Briefly: Western blot of p-AMPK, PPAR-δ and PGC-1α in differentiating C2C12 cells. The class given is cell-based. The settings on record: versus untreated control. How it is done:
C2C12 cells (mouse skeletal cell line) were seeded onto a 6-well plate in a CO2 incubator at 37° C. and cultured in a DMEM medium containing 10% FBS and 1% antibiotics to about 80% confluency. After replacing the medium with one containing 1% FBS, differentiation was conducted for 3 days. Then, after replacing the medium with one containing 1% FBS and then treating with a drug, experiment was conducted 24 hours later.
The protein content of the extract was measured by the Bradford's method. The extracted proteins (20-30 μg) were loaded on a 10% SDS-PAGE gel. Western blot assay was conducted using primary antibodies for AMPKα, phosphorylated AMPKα, PPARδ and PGC-1α. Images were obtained manually using the Kodak GBX developer and a fixative reagent.
Specifically, after treating differentiating C2C12 cells with the compounds at different concentrations (10 μM, 30 μM, 50 μM), the expression of activated (phosphorylated) AMPK (p-AMPK), PPAR-δ and PGC-1α was investigated by western blot.

Setting [7] is: SHR, 8 weeks old, drug in drinking water for 4 weeks (midodrine 0.2 mg/kg/day, atenolol 1 mg/kg/day), mean±SD.
[8] abbreviates: C2C12, over 10 μM, 30 μM, 50 μM.

Structures can show the parent of a compound that is named as a salt. Marks after values point to notes of the source that are not given here.

`CC(C)NCC(O)COc1ccc(CC(N)=O)cc1` (stereo not drawn) [Atenolol]: in test [1] (blood level calibrated for the visceral fat weight (g)), the Adiponectin is on record as 6136.5 ± 574.7^bc ng/ml/g. Further, the ROS in test [1] is reported as 223.1 ± 45.4^a ng/ml. For the same compound, the ROS result in test [1] (listed as atenolol) was “lower”. For the same compound, in test [1] (serum), the IL-1α is given as 5.51 ± 2.64^c μg/ml, the IL-1β is given as 2.02 ± 1.53^a μg/ml, the IL-4 is 2.94 ± 0.90^b μg/ml and the IL-6 is recorded as 5.62 ± 1.42^a μg/ml. In addition, in test [1] (serum), the IL-10 is recorded as 15.33 ± 2.79^b μg/ml and the TNF-α is 8.35 ± 1.36^b μg/ml. Besides, in test [1] (serum, listed as atenolol), the IL-1α entry is recorded as “significantly increased”, the IL-4 result was “slightly higher”, the IL-10 entry was “slightly higher” and the TNF-α result is reported as “significantly increased”. In addition, in test [2], the Body weight is 296.46 ± 16.73^b g and the Cardiac weight is given as 1.47 ± 0.15^a g. The Body weight entry in test [2] (listed as atenolol) is given as “highest”. In test [3] (8-week-old SHR, versus unadministered control (group IV)), the left ventricular performance entry is “higher”. For the same compound, in test [3] (setting [7]), the “Diastolic left ventricular diaphragm” value is 1.50 ± 0.13^a mm, the “Diastolic left ventricular inner size” value is given as 6.33 ± 0.35^a mm, the “Diastolic left ventricular wall” value turned out to be 1.67 ± 0.16 mm and the “Left ventricular ejection fraction” value is given as 82.00 ± 5.31^a %. Besides, in test [3] (setting [7]), the “Left ventricular fractional shortening” value is 45.70 ± 5.82^a %, the “Left ventricular mass according to ASE” value is recorded as 1.10 ± 0.07^a g and the “Systolic left ventricular inner size” value is on record as 3.43 ± 0.28^a mm. Besides, the “ATP level in heart tissue” value in test [4] was “higher”. Also, the “TNFα expression in the aorta” value in test [5] (among groups I-IV, FIG. 3A) is “moderate”. Besides, the “expression of angiotensin II AT1R mRNA in the cardiac muscle” value in test [5] (among groups I-IV, FIG. 3B) is “moderate”. The “expression of angiotensin II AT1R mRNA in the aorta” value in test [5] (versus control groups I and IV, FIG. 3A) is “lower”.

On to `COc1ccc(OC)c(C(O)CNC(=O)C(N)Cc2ccccc2)c1` (stereo not drawn) [Compound 5, 2-amino-N-(2-(2,5-dimethoxyphenyl)-2-hydroxyethyl)-3-phenylpropanamide], for which, in test [6] (C2C12, 30 μM), the “expression of PPAR-δ” value is on record as “significantly increased” and the “expression of p-AMPK” value is on record as “significantly increased”.

For the compound `COc1ccc(OC)c(C(O)CNC(=O)C(C)N)c1` (stereo not drawn) [Compound 7, 2-amino-N-(2-(2,5-dimethoxyphenyl)-2-hydroxyethyl)propanamide], the “expression of p-AMPK” value is “significant increase” in test [6] (C2C12, 10 μM); “significant increase” in test [6] (C2C12, 50 μM); “concentration-dependent increase” in test [6] (setting [8]). Besides, the “expression of PPAR-δ” value in test [6] (C2C12, 30 μM) was “significant increase”; in test [6] (setting [8]), “concentration-dependent increase”.

`COc1cc(OC)cc(C(O)CNC(=O)CN)c1` (stereo not drawn) [Compound 8, 2-amino-N-(2-(3,5-dimethoxyphenyl)-2-hydroxyethyl)acetamide hydrochloride]: in test [6] (C2C12, 50 μM), the “expression of PGC-1α” value is listed as “significantly increased” and the “expression of p-AMPK” value is reported as “significantly increased”. In test [6] (setting [8]), the “expression of PGC-1α” value is “overall increase”, the “expression of PPAR-δ” value is “overall increase” and the “expression of p-AMPK” value is recorded as “overall increase”.

With `CCc1ccc(OC)c(C(O)CNC(=O)CN)c1` (stereo not drawn) [Compound 9, 2-amino-N-(2-(5-ethyl-2-methoxyphenyl)-2-hydroxyethyl)acetamide hydrochloride], in test [6] (C2C12, 30 μM), the “expression of PGC-1α” value is “significantly increased” and the “expression of p-AMPK” value is reported as “significantly increased”. In addition, in test [6] (C2C12, 50 μM), the “expression of PGC-1α” value is “significantly increased” and the “expression of p-AMPK” value is recorded as “significantly increased”. In test [6] (setting [8]), the “expression of PGC-1α” value is recorded as “overall increase”, the “expression of PPAR-δ” value is recorded as “overall increase” and the “expression of p-AMPK” value is given as “overall increase”.

On to `NCC(=O)NCC(O)c1ccccc1` (stereo not drawn) [Compound 10, 2-amino-N-(2-hydroxy-2-phenylethyl)acetamide hydrochloride], for which the “expression of PPAR-δ” value in test [6] (C2C12, 10 μM) is on record as “significantly increased”; in test [6] (C2C12, 50 μM), “significantly increased”. The “expression of p-AMPK” value in test [6] (C2C12, 30 μM) is “significantly increased”; in test [6] (C2C12, 50 μM) it was “significantly increased”.
